According to patent US11267795B2, “Crystalline PPAR-delta agonist” (Reneo Pharmaceuticals, Inc., priority 2020, dated 2022):

Assays:
RXR = experiment: Nuclear receptor activation in human cells expressing the receptor; assay type: cell-based
PPARγ = molecular target: T1, PPARγ (Homo sapiens, UniProt P37231); experiment: PPAR agonist activity in human cell lines expressing the three PPAR isotypes; assay type: cell-based
T1 sequence (P37231 1-505): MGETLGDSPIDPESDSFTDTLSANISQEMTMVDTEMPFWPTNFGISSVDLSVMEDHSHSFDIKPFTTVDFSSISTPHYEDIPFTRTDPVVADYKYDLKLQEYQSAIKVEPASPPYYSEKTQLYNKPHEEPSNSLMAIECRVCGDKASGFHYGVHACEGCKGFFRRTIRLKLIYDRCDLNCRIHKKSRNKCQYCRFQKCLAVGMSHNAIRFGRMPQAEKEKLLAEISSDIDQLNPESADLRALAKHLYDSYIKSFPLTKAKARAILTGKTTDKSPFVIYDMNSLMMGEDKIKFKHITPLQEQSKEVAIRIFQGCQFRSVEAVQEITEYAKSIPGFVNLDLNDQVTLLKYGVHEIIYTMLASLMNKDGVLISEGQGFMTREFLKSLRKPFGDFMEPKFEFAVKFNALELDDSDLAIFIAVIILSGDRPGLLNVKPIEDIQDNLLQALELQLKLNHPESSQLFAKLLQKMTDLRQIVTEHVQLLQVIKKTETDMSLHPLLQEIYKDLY
Procedure: (§1) Compound I is a PPARS agonist that is useful in the methods of treatment described herein. In human cell lines expressing the three peroxisome proliferator-activated receptor (PPAR) isotypes, Compound I is a potent (EC50<100 nM) and selective human PPARS agonist (PPARα (EC50>10 μM) and PPARγ (EC50>10 μM)).

PPARδ = molecular target: T2, PPARδ (Homo sapiens, UniProt Q03181); experiment: as above; assay type: cell-based
T2 sequence (Q03181 1-441): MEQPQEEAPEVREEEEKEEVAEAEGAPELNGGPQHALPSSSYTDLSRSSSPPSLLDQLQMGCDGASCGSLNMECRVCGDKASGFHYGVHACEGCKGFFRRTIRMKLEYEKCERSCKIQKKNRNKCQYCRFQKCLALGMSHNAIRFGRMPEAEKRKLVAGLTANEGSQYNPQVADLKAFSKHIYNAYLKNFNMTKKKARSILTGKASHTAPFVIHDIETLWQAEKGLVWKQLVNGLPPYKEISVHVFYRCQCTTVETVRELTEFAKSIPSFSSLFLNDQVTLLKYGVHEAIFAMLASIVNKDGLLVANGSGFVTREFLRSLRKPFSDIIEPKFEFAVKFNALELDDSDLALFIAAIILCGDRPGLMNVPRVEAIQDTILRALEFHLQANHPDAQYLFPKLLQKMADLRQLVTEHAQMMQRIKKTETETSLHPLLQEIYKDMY
Procedure: as §1

PPARα = molecular target: T3, PPARα (Homo sapiens, UniProt Q07869); experiment: as above; assay type: cell-based
T3 sequence (Q07869 1-468): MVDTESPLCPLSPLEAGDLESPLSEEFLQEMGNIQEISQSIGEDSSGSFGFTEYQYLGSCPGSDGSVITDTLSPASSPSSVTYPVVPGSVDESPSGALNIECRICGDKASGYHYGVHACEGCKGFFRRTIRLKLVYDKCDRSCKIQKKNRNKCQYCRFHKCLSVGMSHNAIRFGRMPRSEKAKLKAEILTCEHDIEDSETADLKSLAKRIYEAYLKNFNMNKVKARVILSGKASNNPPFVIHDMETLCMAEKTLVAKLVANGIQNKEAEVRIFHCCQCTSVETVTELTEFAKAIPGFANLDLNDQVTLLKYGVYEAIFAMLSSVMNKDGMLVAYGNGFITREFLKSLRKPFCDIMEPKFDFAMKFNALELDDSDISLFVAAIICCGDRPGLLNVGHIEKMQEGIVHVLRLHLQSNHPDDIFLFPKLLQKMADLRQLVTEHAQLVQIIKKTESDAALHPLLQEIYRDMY
Procedure: as §1

LXRP = molecular target: T4, LXRP (Homo sapiens, UniProt P55055); experiment: Nuclear receptor activation in human cells expressing the receptor; assay type: cell-based
T4 sequence (P55055 1-460): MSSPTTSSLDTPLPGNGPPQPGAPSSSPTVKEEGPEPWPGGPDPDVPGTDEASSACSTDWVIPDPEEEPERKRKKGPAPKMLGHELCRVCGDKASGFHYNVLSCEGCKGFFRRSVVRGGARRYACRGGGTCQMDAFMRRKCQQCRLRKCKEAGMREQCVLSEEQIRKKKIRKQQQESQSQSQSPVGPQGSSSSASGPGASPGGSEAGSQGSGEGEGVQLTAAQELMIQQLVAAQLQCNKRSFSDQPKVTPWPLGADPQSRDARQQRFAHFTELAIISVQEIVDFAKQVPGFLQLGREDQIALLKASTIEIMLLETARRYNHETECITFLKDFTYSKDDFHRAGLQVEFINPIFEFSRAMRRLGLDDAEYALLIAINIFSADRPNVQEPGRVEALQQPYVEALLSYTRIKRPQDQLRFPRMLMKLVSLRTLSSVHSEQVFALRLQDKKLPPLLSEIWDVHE

LXRα = molecular target: T5, LXRα (Homo sapiens, UniProt Q13133); experiment: as above; assay type: cell-based
T5 sequence (Q13133 1-447): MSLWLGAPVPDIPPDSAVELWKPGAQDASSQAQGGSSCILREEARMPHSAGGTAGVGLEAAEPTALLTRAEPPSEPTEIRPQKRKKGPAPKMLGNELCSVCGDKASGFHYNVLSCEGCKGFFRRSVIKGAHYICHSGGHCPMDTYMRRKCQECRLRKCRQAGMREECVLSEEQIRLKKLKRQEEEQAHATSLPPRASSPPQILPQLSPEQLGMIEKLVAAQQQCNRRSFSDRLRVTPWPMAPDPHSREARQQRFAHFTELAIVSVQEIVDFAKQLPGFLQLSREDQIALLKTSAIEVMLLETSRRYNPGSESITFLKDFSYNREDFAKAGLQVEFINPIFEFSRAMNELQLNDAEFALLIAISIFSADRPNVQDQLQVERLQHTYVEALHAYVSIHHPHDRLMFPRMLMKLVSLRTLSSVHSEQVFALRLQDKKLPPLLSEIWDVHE

[1] = system: PPARS regulated genes (CPT1b, PGC-1α) in mice muscle; experiment: In vivo expression of PPARδ regulated genes in mice muscle
[2] = system: Angiopoietin-like 4 (ANGPTL4); experiment: In vivo expression of PPAR target gene in rat muscle
FXR = molecular target: T6, FXR (Homo sapiens, UniProt Q96RI1); experiment: Nuclear receptor activation in human cells expressing the receptor; assay type: cell-based
T6 sequence (Q96RI1 1-486): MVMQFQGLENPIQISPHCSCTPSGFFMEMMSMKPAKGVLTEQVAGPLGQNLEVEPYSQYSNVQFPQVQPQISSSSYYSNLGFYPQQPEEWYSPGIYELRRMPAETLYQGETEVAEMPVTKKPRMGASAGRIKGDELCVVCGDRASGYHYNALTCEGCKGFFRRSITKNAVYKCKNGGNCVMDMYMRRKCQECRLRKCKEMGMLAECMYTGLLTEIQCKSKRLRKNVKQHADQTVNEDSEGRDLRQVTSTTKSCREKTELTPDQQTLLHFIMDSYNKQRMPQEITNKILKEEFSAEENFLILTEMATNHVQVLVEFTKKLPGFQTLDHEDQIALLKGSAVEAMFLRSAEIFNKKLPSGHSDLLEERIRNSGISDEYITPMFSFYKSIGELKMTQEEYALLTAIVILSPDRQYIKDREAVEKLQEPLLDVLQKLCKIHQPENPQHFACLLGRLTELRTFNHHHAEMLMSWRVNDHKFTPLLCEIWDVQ

[3] = human cell lines expressing the PPAR isotypes

Cc1cc(OC/C=C(/c2ccc(F)cc2)c2ccc(C#CCN3CCOCC3)cc2)ccc1OCC(=O)O [Compound I, (E)-2-(4-((3-(4-fluorophenyl)-3-(4-(3-morpholinoprop-1-yn-1-yl)phenyl)allyl)oxy)-2-methylphenoxy)acetic acid]
activation of nuclear receptor RXR (RXR): has not resulted in activation | type of agonism at PPARγ (PPARγ): partial agonist | EC50 (PPARγ; [3]): > 10 µM | type of agonism at PPARδ (PPARδ): full PPARS agonist | EC50 (PPARδ; [3]): < 0.1 µM | type of agonism at PPARα (PPARα): partial agonist | EC50 (PPARα; [3]): > 10 µM | activation of nuclear receptor LXRP (LXRP): has not resulted in activation | activation of nuclear receptor LXRα (LXRα): has not resulted in activation | expression of PPARδ regulated genes (CPT1b, PGC-1α) [1]: altered the expression patterns | expression of Angiopoietin-like 4 (ANGPTL4) [2]: increased the expression | activation of nuclear receptor FXR (FXR): has not resulted in activation
